According to US7217808B2, “RFRP-3 and DNA thereof” (Takeda Pharmaceutical Company, Ltd., priority 2001, dated 2007):

What was measured:
Human OT7T022 receptor = biological target: T1, Human OT7T022 receptor (Homo sapiens, UniProt Q9GZQ6); test: Effect of pertussis toxin upon activation of human OT7T022 receptor (cAMP production inhibition); format: cell-based; conditions: 0.1 μM peptide, 1 μM forskolin, 100 ng/ml pertussis toxin overnight
T1 construct: expressed in transfected cells; host or cells: CHO cells
T1 sequence (Q9GZQ6 whole entry): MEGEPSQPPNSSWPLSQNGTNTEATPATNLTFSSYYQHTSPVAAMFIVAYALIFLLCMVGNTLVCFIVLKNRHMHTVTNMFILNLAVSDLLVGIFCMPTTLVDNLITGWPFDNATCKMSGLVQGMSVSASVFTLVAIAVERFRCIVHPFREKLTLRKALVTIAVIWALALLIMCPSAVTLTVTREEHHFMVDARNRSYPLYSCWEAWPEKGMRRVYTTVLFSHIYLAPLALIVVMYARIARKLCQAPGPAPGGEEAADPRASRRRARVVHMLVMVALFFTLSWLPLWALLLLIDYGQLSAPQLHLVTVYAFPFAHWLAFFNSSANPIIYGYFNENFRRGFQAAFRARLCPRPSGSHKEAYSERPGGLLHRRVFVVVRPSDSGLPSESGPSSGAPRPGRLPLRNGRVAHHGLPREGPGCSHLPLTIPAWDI
Experimental: The human OT7T022 receptor-expressing CHO cells obtained in Example A8 were plated in 24-well plates at 1×10^5 cells/well and cultured overnight. Then, the medium was changed for 100 ng/ml pertussis toxin (Sigma)-containing medium or a control medium, and the cells were cultured overnight. The cells were washed with Hanks' buffer (HBSS) supplemented with 0.05% BSA and 0.2 mM IBMX and then pre-incubated in the same buffer at 37° C., for 30 min. Subsequently, the buffer was exchanged for HBSS supplemented with 0.05% BSA and 0.2 mM IBMX, HBSS supplemented with 1 μM forskolin alone, or HBSS supplemented with 1 μM forskolin and a peptide at various concentrations, and the cells were incubated at 37° C. for 30 min. After the incubation, the buffer was exchanged for HBSS supplemented with 0.05% BSA and 0.2 mM IBMX (black column), this buffer supplemented with 1 μM forskolin alone (white column), or this buffer supplemented with 1 μM forskolin and 0.1 μM RFRP-1-12 (peptide having the amino acid sequence which is from position 81 (Met) to position 92 (Phe) of SEQ ID NO: 1) (column with slant lines), and the cells were incubated at 37° C. for 30 min. After the incubation, intracellular cAMP was extracted and determined for each well according to the protocol attached to the cAMP EIA Kit (Amersham). […]

adult male Wistar rats = test: Plasma pituitary hormone levels after administration into the third ventricle; format: in vivo, rat; conditions: 10 mnol into the third ventricle; for plasma prolactin levels: vs PBS control
Experimental: Effects of the administration of the peptide represented by SEQ ID NO: 39 into the third ventricle upon pituitary hormone levels were examined. Briefly, adult male Wistar rats (body weight 290–350 g at the time of surgery) were anesthetized by intraperitoneal administration of 50 mg/kg pentobarbital and fixed in a stereotaxic apparatus for rat brain. The incisor bar was set 3.3 mm below the interaural line. The skull surface was exposed, and a hole was drilled in the skull with a dental drill in order to implant a guide cannula Further, an anchor screw was embedded at one place around the hole. A stainless guide cannula AG-12 (inside dia. 0.4 mm, outside dia. 0.5 mm; Eicom) was inserted so that its tip is located above the third ventricle. The stereotaxic coordinates were set as follows according to the atlas of Paxinos and Watson (1998): AP: +7.2 mm (from the interaural line), L: 0.0 mm, H: +2.0 mm (from the interaural line). The guide cannula was fixed onto the skull with instant glue, dental cement and the anchor screw. A stainless dummy cannula AD-12 (outside dia. 0.35 mm; Eicom) was inserted into the guide cannula and fixed with a cap nut (Eicom). After the surgery, the rats were bred separately in individual cages for more than one week to allow recovery.
The day before the experiment, the rats that had undergone the above surgery were anesthetized by intraperitoneal administration of 50 mg/kg pentobarbital and fixed on anatomical pads in face-up position. Then, a catheter (SP35; Natsume Seisakusho) was inserted into the right jugular vein. The next day, 400 μl of blood was taken from the jugular vein. In order to prevent blood coagulation, 20 μl of physiological saline containing 200 units/ml heparin was put in advance in the injection syringe. The cap nut and the dummy cannula installed on the rat skull were removed. Instead of them, a stainless microinjection cannula AMI13 (inside dia. 0.17 mm, outside dia. 0.35 mm; Eicom) connected with a Teflon tube (length 50 cm, inside dia. 0.1 mm, outside dia. 0.4 mm; Eicom) was inserted into the guide cannula. The length of the microinjection cannula was adjusted in advance so that 1 mm of its tip is exposed from the guide cannula. One end of the Teflon tube was connected with a microsyringe pump. Then, a total 10 μl of PBS alone or PBS containing the peptide represented by SEQ ID NO: 39 was injected into the third ventricle at a flow rate of 5 μl/min. One minute after the completion of the injection, the microinjection cannula was removed, and a dummy cannula was fixed again with a cap nut. A 400 μl blood sample was taken from the cannula inserted into the jugular vein immediately before the start of the intraventricular administration and at 10, 20, 30, 40 and 60 min after the start of the intraventricular administration. The collected blood was centrifuged at 5,000 rpm for 10 min in a high-speed refrigerated microcentrifuge (MR-150; Tomy Seiko) to recover the supernatant (plasma). The prolactin levels in the plasma were measured by radioimmunoassay.
The results are expressed as mean±S.E.M. Whether there is a significant difference between the group to which PBS containing the peptide represented by SEQ ID NO: 39 was administered and the control group to which PBS alone was administered was tested by Student's t-test. Differences were assessed with two-sided tests, and significance level 5% or below was judged statistically significant.

rOT7T022L = biological target: T2, rOT7T022L (Rattus norvegicus, UniProt Q9EP86); test: Cytosensor acidification rate of rOT7T022L receptor-expressing CHO cells; format: cell-based; conditions: peptide exposure 7 min 2 sec
T2 construct: expressed in transfected cells; host or cells: CHO dhfr- cells (clone CHO-rOT7T022L)
T2 sequence (Q9EP86 whole entry): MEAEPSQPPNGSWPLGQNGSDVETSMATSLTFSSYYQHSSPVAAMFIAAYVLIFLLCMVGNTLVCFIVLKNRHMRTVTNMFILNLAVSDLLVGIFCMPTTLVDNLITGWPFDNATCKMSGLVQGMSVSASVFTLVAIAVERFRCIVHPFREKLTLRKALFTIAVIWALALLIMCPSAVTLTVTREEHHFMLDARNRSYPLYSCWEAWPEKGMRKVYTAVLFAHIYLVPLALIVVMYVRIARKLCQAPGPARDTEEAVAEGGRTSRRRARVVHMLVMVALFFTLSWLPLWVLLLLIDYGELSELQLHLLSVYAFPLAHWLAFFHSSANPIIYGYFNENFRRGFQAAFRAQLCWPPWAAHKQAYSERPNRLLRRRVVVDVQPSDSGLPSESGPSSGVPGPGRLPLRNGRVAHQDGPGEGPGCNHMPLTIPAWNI
Text: The rOT7T022L receptor-expressing CHO cells obtained in (2) in Reference Example 7 were sown in cytosensor capsules at 2.7×10^5 cells/capsule. After overnight culture, the capsules were mounted in the work station of a cytosensor. The assay medium (0.1% bovine serum albumin-containing low buffered RPMI1640 medium) positioned in the flow route of the cytosensor was supplied to the cells under pump ON (80 sec)/pump OFF (40 sec) cycles. In each cycle, the change ratio of extracellular pH for 30 sec starting from 8 sec after the stop of the pump was calculated as acidification rate. The time course of acidification rate was monitored. When this rate began to show stable values, the flow route was shifted to thereby expose individual peptide to the cells for 7 min and 2 sec. The values of acidification rate in individual wells were normalized taking the values for the 3 cycles immediately before the peptide exposure as 100%.

human-type OT7T022 = biological target: T3, human-type OT7T022 (Homo sapiens, UniProt Q9GZQ6); test: Binding inhibition of 125I-Tyr-hRFRP-3(8) to membrane fraction from human-type OT7T022-expressing CHO cells; conditions: room temperature 1.5 hr
T3 construct: expressed in transfected cells; host or cells: CHO cells
T3 sequence (Q9GZQ6 whole entry): as the sequence (Q9GZQ6 whole entry) above
Experimental: With this buffer, the membrane fraction from human-type OT7T022-expressing CHO cells was diluted to give a concentration of 1 μg/25 μl. […] Sample solutions prepared, NSB and the assay buffer were dispensed into polypropylene 96-well plates in quadruplicate as total 50 μl/well. […] Twenty-five microliter of the membrane fraction solution from human-type OT7T022-expressing CHO cells was added thereto, agitated with a plate mixer and incubated at room temperature for 1.5 hr. Using a cell harvester for 96-well plates, the contents of each well were adsorbed onto a filter unit (GF/C, treated with polyethylene imine) pre-moisturized with washing buffer (50 mM Tris-HCl, pH 7.5). After washing 5 times with the washing buffer, the adsorbate was dried thoroughly. The lower part of the filter unit was sealed. Then, 50 μl of liquid scintillator was added to each well and the upper part of the filter unit was sealed. Radioactivity was measured with a Top Count (Packard), and data were analyzed in triplicate.

Compound | cAMP production inhibitory activity in cells treated with pertussis toxin (Human OT7T022 receptor) | ACTH level in the plasma (adult male Wistar rats) | GH level in the plasma (adult male Wistar rats) | LH level in the plasma (adult male Wistar rats) | TSH level in the plasma (adult male Wistar rats) | plasma prolactin levels (adult male Wistar rats; 60 min after administration) | plasma prolactin levels (adult male Wistar rats; at 20, 30 and 40 min after administration) | plasma prolactin levels (adult male Wistar rats; from 10 min after administration) | reactivity of rOT7T022L receptor-expressing CHO cells (acidification rate) (rOT7T022L) | IC50 (human-type OT7T022) [nM]
H-MPHSFANLPLRF-NH2 | disappeared | did not show significant changes | did not show significant changes | did not show significant changes | did not show significant changes | significant difference was observed | increased significantly | increasing tendency | reactive | 
H-ATANLPLRSGRNMEVSLVRRVPNLPQRF-NH2 [hRFRP-3 (28)] |  |  |  |  |  |  |  |  |  | 1.6
CC(C)C[C@H](NC(=O)[C@H](CC(N)=O)NC(=O)[C@@H]1CCCN1C(=O)[C@@H](N)C(C)C)C(=O)N1CCC[C@H]1C(=O)N[C@@H](CCC(N)=O)C(=O)N[C@@H](CCCNC(=N)N)C(=O)N[C@@H](Cc1ccccc1)C(N)=O |  |  |  |  |  |  |  |  | reactive | 
